This test concerns C57BL/6 mice, Adenocarcinoma 755 sc, tumor weight T/C. The experiment in a line: NCI In Vivo Anticancer Drug Screen. Data for tumor model Adenocarcinoma 755 (subcutaneous) in C57BL/6 mice. The settings on record: endpoint: mean tumor weight, higher = larger tumour. On the procedure:
The antitumor activity of compounds was measured in mice bearing transplantable tumors. Survival or tumor size were measured and the results are expressed as the measurement made in the treated group (T) divided by the measurement made in the vehicle treated control group (C). The tumor model used in this assay is Adenocarcinoma 755 (subcutaneous) in C57BL/6 mice

Where [1] appears, read: dose: 25.0 mg/kg/injection, schedule: Q01DX011 (ip), vehicle: saline.
Where [2] appears, read: dose: 50.0 mg/kg/injection, schedule: Q01DX011 (ip), vehicle: saline.
The mark [3] stands for this setting: dose: 100.0 mg/kg/injection, schedule: Q01DX011 (ip), vehicle: saline.
The mark [4] stands for this setting: dose: 50.0 mg/kg/injection, schedule: Q01DX011 (ip), vehicle: carboxymethylcellulose (CMC).

Each structure is given as a SMILES string. “And” between values parts separate entries of the source, which are not always exact repeats. Identical values can stand only once.

As a reminder, the T/C is the ratio of treated to control. As for `Clc1ncnc2c1ncn2Cc1ccco1`, the T/C (dose: 12.5 mg/kg/injection, schedule: Q01DX011 (ip), vehicle: saline) was 63 % of control; the T/C under setting [1] was 62 % of control; the T/C under setting [2] is 86 % of control; the T/C under setting [3] was 51 % of control.
With `CCc1c(CC(=O)O)c2cc(C)ccc2n1Cc1ccc(Cl)cc1`, the T/C (dose: 1.56 mg/kg/injection, schedule: Q01DX011 (ip), vehicle: saline) is 79 % of control; the T/C (dose: 3.13 mg/kg/injection, schedule: Q01DX011 (ip), vehicle: saline) is 66 % of control; the T/C (dose: 6.25 mg/kg/injection, schedule: Q01DX011 (ip), vehicle: saline) is 109 % of control; the T/C under setting [1] is 10 % of control; the T/C under setting [2] was 22 % of control.
Turning to `O=c1[nH]cc(F)c(=O)[nH]1`, the T/C was 7 % of control (dose: 10.0 mg/kg/injection, schedule: Q01DX011 (ip), vehicle: carboxymethylcellulose (CMC)) and 61 % of control (dose: 20.0 mg/kg/injection, schedule: Q01DX011 (ip), vehicle: carboxymethylcellulose (CMC)).
With `O=C(O)C(=O)CF`, the T/C under setting [2] was 63 % of control.
In the case of `S=c1nc[nH]c2nc[nH]c12.[Cd]`, the T/C runs as follows: (dose: 0.1 mg/kg/injection, schedule: Q01DX011 (ip), vehicle: saline) 60 % of control; (dose: 0.2 mg/kg/injection, schedule: Q01DX011 (ip), vehicle: saline) 76 % of control; (dose: 0.4 mg/kg/injection, schedule: Q01DX011 (ip), vehicle: saline) 60 % of control; (dose: 0.8 mg/kg/injection, schedule: Q01DX011 (ip), vehicle: saline) 49 % of control.
Consider `CCCCCCCCCNc1ncnc2[nH]ncc12`, for which the T/C by setting is: under setting [2], 51 % of control; under setting [3], 64 % of control.
With `CCCCCCCCCCCNc1ncnc2[nH]ncc12`, the T/C was 46 % of control under setting [2] and 41 % of control under setting [3].
For `Clc1ncnc2c1ncn2C1CCCC1`, the T/C by setting is: (dose: 25.0 mg/kg/injection, schedule: Q01DX011 (ip), vehicle: carboxymethylcellulose (CMC)) 79 % of control; under setting [4], 118 % of control; (dose: 75.0 mg/kg/injection, schedule: Q01DX011 (ip), vehicle: carboxymethylcellulose (CMC)) 71 % of control; (dose: 100.0 mg/kg/injection, schedule: Q01DX011 (ip), vehicle: carboxymethylcellulose (CMC)) 18 % of control.
Consider `C[C@@H]1CC2=CC(=O)C=C[C@]2(C)[C@H]2CC[C@@]3(C)[C@@H](CC[C@]3(C)O)[C@H]12`, for which the T/C was 70 % of control (dose: 50.0 mg/kg/injection, schedule: Q01DX011 (sc), vehicle: steriod suspending solution); 73 % of control (dose: 100.0 mg/kg/injection, schedule: Q01DX011 (sc), vehicle: steriod suspending solution); 58 % of control (dose: 200.0 mg/kg/injection, schedule: Q01DX011 (sc), vehicle: steriod suspending solution); 29 % of control (dose: 400.0 mg/kg/injection, schedule: Q01DX011 (sc), vehicle: steriod suspending solution).
`NNC(=O)c1nsnc1NC(N)=O`: the T/C is 109 % of control (dose: 6.0 mg/kg/injection, schedule: Q01DX011 (ip), vehicle: carboxymethylcellulose (CMC)); 107 % of control (dose: 11.0 mg/kg/injection, schedule: Q01DX011 (ip), vehicle: carboxymethylcellulose (CMC)); 99 % of control (dose: 22.0 mg/kg/injection, schedule: Q01DX011 (ip), vehicle: carboxymethylcellulose (CMC)).
`CCCCNc1ncnc2nc[nH]c12`: for the setting “dose: 30.0 mg/kg/injection, schedule: Q01DX011 (ip), vehicle: carboxymethylcellulose (CMC)”, the T/C is 91 % of control.
As for `C[N+](C)(C)c1ncnc2nc[nH]c12`, the T/C (dose: 1.25 mg/kg/injection, schedule: Q#A X022 (ip), vehicle: saline) was 95 % of control; the T/C (dose: 2.5 mg/kg/injection, schedule: Q01DX011 (ip), vehicle: saline) is 109 % of control; the T/C (dose: 2.5 mg/kg/injection, schedule: Q01DX011 (sc), vehicle: saline) is 56 % of control; the T/C (dose: 2.5 mg/kg/injection, schedule: Q#A X022 (ip), vehicle: saline) was 93 % of control; the T/C (dose: 5.0 mg/kg/injection, schedule: Q01DX011 (ip), vehicle: saline) was 52 % of control; the T/C (dose: 5.0 mg/kg/injection, schedule: Q01DX011 (sc), vehicle: saline) was 34 % of control. The T/C reads like this: (dose: 5.0 mg/kg/injection, schedule: Q#A X022 (ip), vehicle: saline) 40 % of control; (dose: 7.5 mg/kg/injection, schedule: Q03DX004 (ip), vehicle: saline) 77 % of control; (dose: 10.0 mg/kg/injection, schedule: Q01DX006 (iv), vehicle: saline) 50 % of control; (dose: 10.0 mg/kg/injection, schedule: Q01DX011 (ip), vehicle: saline) 12 % of control and 18 % of control; (dose: 10.0 mg/kg/injection, schedule: Q01DX011 (oral), vehicle: saline) 58 % of control; (dose: 10.0 mg/kg/injection, schedule: Q01DX011 (sc), vehicle: saline) 34 % of control. Moreover, the T/C runs as follows: (dose: 10.0 mg/kg/injection, schedule: Q02DX006 (im), vehicle: saline) 54 % of control; (dose: 10.0 mg/kg/injection, schedule: Q#A X022 (ip), vehicle: saline) 13 % of control and 18 % of control; (dose: 15.0 mg/kg/injection, schedule: Q03DX004 (ip), vehicle: saline) 76 % of control; (dose: 20.0 mg/kg/injection, schedule: Q01DX011 (ip), vehicle: saline) 6 % of control and 11 % of control and 18 % of control; (dose: 20.0 mg/kg/injection, schedule: Q01DX011 (oral), vehicle: saline) 43 % of control; (dose: 20.0 mg/kg/injection, schedule: Q01DX011 (sc), vehicle: saline) 8 % of control and 16 % of control. Moreover, the T/C by setting is: (dose: 20.0 mg/kg/injection, schedule: Q02DX006 (im), vehicle: saline) 50 % of control; (dose: 20.0 mg/kg/injection, schedule: Q#A X022 (ip), vehicle: saline) 8 % of control; (dose: 30.0 mg/kg/injection, schedule: Q03DX004 (ip), vehicle: saline) 32 % of control; (dose: 40.0 mg/kg/injection, schedule: Q01DX006 (iv), vehicle: saline) 42 % of control; (dose: 40.0 mg/kg/injection, schedule: Q01DX011 (ip), vehicle: saline) 6 % of control and 9 % of control; (dose: 40.0 mg/kg/injection, schedule: Q01DX011 (oral), vehicle: saline) 12 % of control and 18 % of control. Also, the T/C by setting is: (dose: 40.0 mg/kg/injection, schedule: Q01DX011 (sc), vehicle: saline) 7 % of control; (dose: 40.0 mg/kg/injection, schedule: Q02DX006 (im), vehicle: saline) 39 % of control; (dose: 60.0 mg/kg/injection, schedule: Q03DX004 (ip), vehicle: saline) 16 % of control and 18 % of control; (dose: 75.0 mg/kg/injection, schedule: Q01DX001 (ip), vehicle: saline) 76 % of control and 85 % of control; (dose: 80.0 mg/kg/injection, schedule: Q01DX006 (iv), vehicle: saline) 15 % of control; (dose: 80.0 mg/kg/injection, schedule: Q01DX011 (ip), vehicle: saline) 5 % of control. Further, the T/C runs as follows: (dose: 80.0 mg/kg/injection, schedule: Q01DX011 (oral), vehicle: saline) 5 % of control and 10 % of control and 17 % of control; (dose: 80.0 mg/kg/injection, schedule: Q01DX011 (sc), vehicle: saline) 5 % of control; (dose: 80.0 mg/kg/injection, schedule: Q02DX006 (im), vehicle: saline) 20 % of control; (dose: 120.0 mg/kg/injection, schedule: Q03DX004 (ip), vehicle: saline) 10 % of control; (dose: 150.0 mg/kg/injection, schedule: Q01DX001 (ip), vehicle: saline) 47 % of control and 48 % of control; (dose: 160.0 mg/kg/injection, schedule: Q01DX011 (oral), vehicle: saline) 8 % of control. Besides, the T/C runs as follows: (dose: 160.0 mg/kg/injection, schedule: Q01DX011 (sc), vehicle: saline) 4 % of control; (dose: 300.0 mg/kg/injection, schedule: Q01DX001 (ip), vehicle: saline) 33 % of control and 40 % of control; (dose: 320.0 mg/kg/injection, schedule: Q01DX011 (oral), vehicle: saline) 5 % of control.
Regarding `CSc1nc2nc[nH]c2c(=O)[nH]1`, the T/C under setting [4] is 112 % of control.
As for `c1cn[nH]c1`, the T/C is 64 % of control (dose: 8.0 mg/kg/injection, schedule: Q01DX006 (iv), vehicle: saline); 61 % of control (dose: 12.5 mg/kg/injection, schedule: Q01DX011 (oral), vehicle: saline); 45 % of control (dose: 25.0 mg/kg/injection, schedule: Q01DX011 (oral), vehicle: saline); 94 % of control (dose: 32.0 mg/kg/injection, schedule: Q01DX006 (iv), vehicle: saline); 9 % of control (dose: 50.0 mg/kg/injection, schedule: Q01DX011 (oral), vehicle: saline); 53 % of control (dose: 64.0 mg/kg/injection, schedule: Q01DX006 (iv), vehicle: saline).
